Results published in patent US9957298B2, “Peptides as oxytocin agonists” (Hoffmann-La Roche Inc., priority 2014, dated 2018).
Starred links: 1 amine or outer side, 2 acyl side, 3 side chain; linkers in the order of their positions; H or OH if unused. Positions of bridges follow the written chain, without caps; N, C: chain ends. Non-standard residues stand in square brackets, D forms with d. Residues, ends and D or L forms follow the SMILES beside them. Cha = N[C@@H](CC1CCCCC1)C(=O)O; Chg = N[C@H](C(=O)O)C1CCCCC1; Phg = N[C@H](C(=O)O)c1ccccc1; Suc = O=C(CCC(=O)[*:2])[*:1]; hLeu = CC(C)CC[C@H](N)C(=O)O; Nle = CCCC[C@H](N)C(=O)O; Nva = CCC[C@H](N)C(=O)O; Dap = NC[C@H](N)C(=O)O; Sar = CNCC(=O)O

What was measured:
Format in all cases: cell-based
[1] = target: T1, human Oxytocin (OTR) receptor (Homo sapiens, UniProt P30559); assay: Calcium flux assay (FLIPR), agonist mode, CHO cells expressing human oxytocin receptor; details: for EC50: CHO cells, human OTR, calcium flux FLIPR, read-out: hOT EC50; for hOT efficacy (%) / Emax: maximum response normalized to endogenous full agonist = 100%; for Emax: CHO, read-out: hOT efficacy (%)
T1 construct: expressed in transfected cells
T1 sequence (P30559 1-389): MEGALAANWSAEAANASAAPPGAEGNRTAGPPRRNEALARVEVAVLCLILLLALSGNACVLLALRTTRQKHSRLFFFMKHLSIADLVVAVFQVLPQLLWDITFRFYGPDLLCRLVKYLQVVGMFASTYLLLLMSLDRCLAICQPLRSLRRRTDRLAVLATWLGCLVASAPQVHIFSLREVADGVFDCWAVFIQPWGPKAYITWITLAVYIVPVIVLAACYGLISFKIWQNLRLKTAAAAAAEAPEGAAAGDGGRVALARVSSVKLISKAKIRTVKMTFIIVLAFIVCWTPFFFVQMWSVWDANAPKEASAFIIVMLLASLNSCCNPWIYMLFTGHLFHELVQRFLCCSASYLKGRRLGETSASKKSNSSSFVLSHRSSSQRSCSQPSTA
From the text: (§1) Chines Hamster Ovary (CHO) cells were transfected with expression plasmids encoding either the human V1a, the human Oxytocin (OTR) or the human V2 receptor, the later in combination with the chimeric Gqs5 G protein to redirect the signal to Calcium flux. Stable cells were cloned by limiting dilution to yield monoclonal cell lines expressing either human V1a, human V2+Gqs5 or human OTR receptors and selected based on functional responses detected on a fluorometric imaging plate reader (FLIPR) detecting Calcium flux in the cell after receptor activation. The stable cell lines were grown in F-12 K Nutrient Mixture (Kaighns Modification), containing 10% foetal bovine serum (FBS), 1% penicillin-streptomycin, 1% L-[…], 200 ug/ml Geneticin at 37° C. in a 10% CO2 incubator at 95% humidity.
(§2) On the afternoon before the assay, cells were plated at a density of 50,000 cells/well into black 96 well plates with clear bottoms to allow cell inspection and fluorescence measurements from the bottom of each well. The density of cells was sufficient to yield a confluent monolayer the next day. Hanks balanced salt solution, without phenol red, containing 20 mM HEPES (pH 7.3) and 2.5 mM probenecid (assay buffer) was prepared fresh for each experiment. Compound dilutions were made using a Beckman Biomek 2000 laboratory automation workstation, in assay buffer containing 1% DMSO. The dye-loading buffer consisted of a final concentration of 2 μM Fluo-4-AM (dissolved in DMSO and pluronic acid) in assay buffer. The existing culture media was removed from the wells and 100 μl of the dye-loading buffer was added to each well and incubated for approximately 60 min at 37° C. in a 5% CO2 incubator at 95% humidity. Once dye-loaded, the cells were washed thoroughly on an Embla cell washer with the assay buffer to remove any unincorporated dye. Exactly 100 μl assay buffer was left in each well.
(§3) Each 96 well plate containing dye-loaded cells was placed into the FLIPR machine and the laser intensity set to a suitable level to detect low basal fluorescence. To test compounds as agonists, 25 μl diluted compound was added to the plate 10 seconds into the fluorescent measurements and fluorescent response was recorded for 5 minutes. The fluorescence data was normalized to the endogenous full agonist dose-response set at 100% for the maximum response and 0% for the minimum. Each agonist concentration-response curve was constructed using a four parameter logistic equation with Microsoft Excel XLFit as follows: Y=Minimum+((Maximum−Minimum)/(1+10^(LogEC50-X)nH)), where y is the % normalized fluorescence, minimum is the minimum y, maximum is the maximum y, logEC50 is the log10 concentration which produces 50% of the maximum induced fluorescence, x is the log10 of the concentration of the agonist compound and H is the slope of the curve (the Hill Coefficient). The maximum value gives the efficacy of the agonist test compound in percentage. The concentration of agonist that produced a half-maximal response is represented by the EC50 value, the logarithm of which yielded the pEC50 value.

human V1a receptor = target: T2, human V1a receptor (Homo sapiens, UniProt P37288); assay: Calcium flux assay (FLIPR), agonist mode, CHO cells expressing human V1a receptor; details: read-out: hV1a EC50
T2 construct: expressed in transfected cells
T2 sequence (P37288 whole entry): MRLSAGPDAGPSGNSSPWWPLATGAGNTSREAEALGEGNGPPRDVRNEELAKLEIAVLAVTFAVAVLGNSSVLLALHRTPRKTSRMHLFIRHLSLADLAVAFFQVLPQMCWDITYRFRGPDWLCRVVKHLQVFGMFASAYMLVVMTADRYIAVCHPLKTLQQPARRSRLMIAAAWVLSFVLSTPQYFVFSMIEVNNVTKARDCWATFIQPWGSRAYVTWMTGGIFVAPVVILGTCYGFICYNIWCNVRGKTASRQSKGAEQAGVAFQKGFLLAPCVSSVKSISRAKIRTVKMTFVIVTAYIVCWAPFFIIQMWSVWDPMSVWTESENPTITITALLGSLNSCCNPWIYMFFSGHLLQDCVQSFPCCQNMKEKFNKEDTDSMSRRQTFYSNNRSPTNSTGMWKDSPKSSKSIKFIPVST
From the text: as §1, §2, §3

human V2 receptor = target: T3, human V2 receptor (Homo sapiens, UniProt P30518); assay: Calcium flux assay (FLIPR), agonist mode, CHO cells expressing human V2 receptor + Gqs5; details: for EC50: CHO cells, human V2 + chimeric Gqs5, calcium flux FLIPR, read-out: hV2 EC50; for hV2 efficacy (%) / Emax: maximum response normalized to endogenous full agonist = 100%; for Emax: CHO, read-out: hV2 efficacy (%)
T3 construct: expressed in transfected cells
T3 sequence (P30518 whole entry): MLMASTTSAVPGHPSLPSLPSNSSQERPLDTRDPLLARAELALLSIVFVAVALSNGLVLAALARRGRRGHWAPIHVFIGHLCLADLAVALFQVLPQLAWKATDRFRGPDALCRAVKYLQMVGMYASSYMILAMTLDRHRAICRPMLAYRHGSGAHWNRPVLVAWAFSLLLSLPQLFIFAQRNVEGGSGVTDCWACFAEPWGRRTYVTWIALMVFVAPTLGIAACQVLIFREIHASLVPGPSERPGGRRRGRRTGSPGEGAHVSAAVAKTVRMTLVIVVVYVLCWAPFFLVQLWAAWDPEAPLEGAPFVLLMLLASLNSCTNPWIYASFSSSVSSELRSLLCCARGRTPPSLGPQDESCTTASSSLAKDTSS
From the text: as §1, §2, §3

SMILES	EC50 [1] [nM]	hOT efficacy (%) [1] [%]	EC50 (human V1a receptor) [nM]	EC50 (human V2 receptor) [nM]	hV2 efficacy (%) (human V2 receptor)	Emax [1] [%]	Emax (human V2 receptor) [%]
CC[C@H](C)[C@@H]1NC(=O)[C@H](Cc2ccc(O)cc2)NC(=O)CCC(=O)NC[C@@H](C(=O)N2CCC[C@H]2C(=O)N[C@@H](CC(C)C)C(=O)NCC(N)=O)NC(=O)[C@H](CC(N)=O)NC(=O)[C@H](CCC(N)=O)NC1=O [Example 1] (YIQN[Dap]PLG-NH2; linker N-5 via Suc (inferred); C-terminus assumed)	1	105	5120	216	130%		
CC[C@H](C)[C@@H]1NC(=O)[C@H](Cc2ccc(O)cc2)NC(=O)CCC(=O)NC[C@@H](C(=O)N(C)CC(=O)N[C@@H](CC(C)C)C(=O)NCC(N)=O)NC(=O)[C@H](CC(N)=O)NC(=O)[C@H](CCC(N)=O)NC1=O [Example 3] (YIQN[Dap][Sar]LG-NH2; linker N-5 via Suc)	0.9		> 27000	612	130%	113	
CC[C@H](C)[C@@H]1NC(=O)[C@H](Cc2ccc(O)cc2)NC(=O)CCC(=O)NC[C@@H](C(=O)N(C)CC(=O)N[C@H](C(=O)NCC(N)=O)C(C)C)NC(=O)[C@H](CC(N)=O)NC(=O)[C@H](CCC(N)=O)NC1=O [Example 5] (YIQN[Dap][Sar]VG-NH2; linker N-5 via Suc)	0.7		> 27000	1130		111	123
CCCC[C@H](NC(=O)CN(C)C(=O)[C@@H]1CNC(=O)CCC(=O)N[C@@H](Cc2ccc(O)cc2)C(=O)N[C@@H]([C@@H](C)CC)C(=O)N[C@@H](CCC(N)=O)C(=O)N[C@@H](CC(N)=O)C(=O)N1)C(=O)NCC(N)=O [Example 6] (YIQN[Dap][Sar][Nle]G-NH2; linker N-5 via Suc)	1	119	> 27000	364	104%		
CCC[C@H](NC(=O)[C@@H]1CCCN1C(=O)[C@@H]1CNC(=O)CCC(=O)N[C@@H](Cc2ccc(O)cc2)C(=O)N[C@@H]([C@@H](C)CC)C(=O)N[C@@H](CCC(N)=O)C(=O)N[C@@H](CC(N)=O)C(=O)N1)C(=O)NCC(N)=O [Example 17] (YIQN[Dap]P[Nva]G-NH2; linker N-5 via Suc)	0.6		351	116	116/116%	114	
CC[C@H](C)[C@@H]1NC(=O)[C@H](Cc2ccc(O)cc2)NC(=O)CCC(=O)NC[C@@H](C(=O)N2CCC[C@H]2C(=O)N[C@H](C(=O)NCC(N)=O)c2ccccc2)NC(=O)[C@H](CC(N)=O)NC(=O)[C@H](CCC(N)=O)NC1=O [Example 19] (YIQN[Dap]P[Phg]G-NH2; linker N-5 via Suc)	0.4		470	59	114%	114	
CC[C@H](C)[C@@H]1NC(=O)[C@H](Cc2ccc(O)cc2)NC(=O)CCC(=O)NC[C@@H](C(=O)N2CCC[C@H]2C(=O)N[C@H](C(=O)NCC(N)=O)C2CCCCC2)NC(=O)[C@H](CC(N)=O)NC(=O)[C@H](CCC(N)=O)NC1=O [Example 20] (YIQN[Dap]P[Chg]G-NH2; linker N-5 via Suc)	0.9		562	174	112%	117	
CC[C@H](C)[C@@H]1NC(=O)[C@H](Cc2ccc(O)cc2)NC(=O)CCC(=O)NC[C@@H](C(=O)N2CCC[C@H]2C(=O)N[C@@H](CCC(C)C)C(=O)NCC(N)=O)NC(=O)[C@H](CC(N)=O)NC(=O)[C@H](CCC(N)=O)NC1=O [Example 22] (YIQN[Dap]P[hLeu]G-NH2; linker N-5 via Suc)	0.8		391	176	106%	109	
CC[C@H](C)[C@@H]1NC(=O)[C@H](Cc2ccc(O)cc2)NC(=O)CCC(=O)NC[C@@H](C(=O)N(C)CC(=O)N[C@H](C(=O)NCC(N)=O)C2CCCCC2)NC(=O)[C@H](CC(N)=O)NC(=O)[C@H](CCC(N)=O)NC1=O [Example 24] (YIQN[Dap][Sar][Chg]G-NH2; linker N-5 via Suc)	0.5		> 27000	152	120%	104	
CC[C@H](C)[C@@H]1NC(=O)[C@H](Cc2ccc(O)cc2)NC(=O)CCC(=O)NC[C@@H](C(=O)N(C)CC(=O)N[C@@H](CCC(C)C)C(=O)NCC(N)=O)NC(=O)[C@H](CC(N)=O)NC(=O)[C@H](CCC(N)=O)NC1=O [Example 25] (YIQN[Dap][Sar][hLeu]G-NH2; linker N-5 via Suc)	0.8		> 27000	213	118%	103	
CC[C@H](C)[C@@H]1NC(=O)[C@H](Cc2ccc(O)cc2)NC(=O)CCC(=O)NC[C@@H](C(=O)N(C)CC(=O)N[C@@H](CCSC)C(=O)NCC(N)=O)NC(=O)[C@H](CC(N)=O)NC(=O)[C@H](CCC(N)=O)NC1=O [Example 26] (YIQN[Dap][Sar]MG-NH2; linker N-5 via Suc)	0.5		> 27000	281	119%	107	
CCC[C@H](NC(=O)CN(C)C(=O)[C@@H]1CNC(=O)CCC(=O)N[C@@H](Cc2ccc(O)cc2)C(=O)N[C@@H]([C@@H](C)CC)C(=O)N[C@@H](CCC(N)=O)C(=O)N[C@@H](CC(N)=O)C(=O)N1)C(=O)NCC(N)=O [Example 27] (YIQN[Dap][Sar][Nva]G-NH2; linker N-5 via Suc)	0.8		> 27000	282	114%	107	
CC[C@@H](C)[C@@H](NC(=O)CN(C)C(=O)[C@@H]1CNC(=O)CCC(=O)N[C@@H](Cc2ccc(O)cc2)C(=O)N[C@@H]([C@@H](C)CC)C(=O)N[C@@H](CCC(N)=O)C(=O)N[C@@H](CC(N)=O)C(=O)N1)C(=O)NCC(N)=O [Example 28] (YIQN[Dap][Sar][dI]G-NH2; linker N-5 via Suc)	0.5		> 27000	1380		109	119
CC[C@H](C)[C@@H]1NC(=O)[C@H](Cc2ccc(O)cc2)NC(=O)CCC(=O)NC[C@@H](C(=O)N(C)CC(=O)N[C@@H](C(=O)NCC(N)=O)[C@H](C)O)NC(=O)[C@H](CC(N)=O)NC(=O)[C@H](CCC(N)=O)NC1=O [Example 29] (YIQN[Dap][Sar][dT]G-NH2; linker N-5 via Suc)	0.6		> 27000	2070		109	113
CC[C@H](C)[C@@H]1NC(=O)[C@H](Cc2ccc(O)cc2)NC(=O)CCC(=O)NC[C@@H](C(=O)N(C)CC(=O)N[C@@H](CC2CCCCC2)C(=O)NCC(N)=O)NC(=O)[C@H](CC(N)=O)NC(=O)[C@H](CCC(N)=O)NC1=O [Example 31] (YIQN[Dap][Sar][Cha]G-NH2; linker N-5 via Suc)	0.5		> 27000	199	126%	107	
